# Tests used:
# [1] = Example 3 study 1: single oral dose pharmacokinetics in healthy men; type: in vivo, human
# Procedure: (§1) Two single-center, placebo-controlled, double-blind, ascending-dose studies were conducted in healthy men ≧18 and ≦45 yrs. In study 1 (N=70), subjects were randomly assigned to a single dose of Test Compound (TC) or placebo. Escalated doses were received as 100, 250, 400, 750, 1000, 1250, and 1500 mg. PK parameters were estimated from plasma and urine samples collected up to 3 days post dose. Study 2 (N=53) evaluated the PK of repeated doses of Test Compound (TC) in 4 dose groups (100, 250, 500, or 750 mg). Within each group, 12 subjects were assigned to q12h treatment with drug or placebo for 1 wk and were crossed over after a 14-day washout period. PK parameters were estimated from plasma and urine samples on days 1 and 7.
# [2] = Example 3 study 2: repeated oral dose (q12h, 1 wk) pharmacokinetics in healthy men; type: in vivo, human
# Procedure: as §1
# [3] = tested on: rats subjected to Li-pilo induced SE; experiment: Example 1: Timm staining, mossy fiber sprouting in hippocampus; type: in vivo, rat; settings: for Timm score: 60 mg/kg
# Procedure: At 2 months after the onset of spontaneous recurrent seizures, mossy fiber sprouting was examined on rats in the chronic period exposed to the test compound or DZP and in 3 saline-saline rats. Animals were deeply anaesthetized and perfused transcardially with saline followed by 100 ml of 1.15% (w/v) Na2S in 0.1 M phosphate buffer, and 100 ml of 4% (v/v) formaldehyde in 0.1 M phosphate buffer. Brains were removed from skull, post-fixed in 4% formaldehyde during 3-5 h and 40 μm sections were cut on a sliding vibratome and mounted on gelatin-coated slides.
# The following day, sections were developed in the dark in a 26° C. solution of 50% (w/v) arabic gum (160 ml), sodium citrate buffer (30 ml), 5.7% (w/v) hydroquinone (80 ml) and 10% (w/v) silver nitrate (2.5 ml) during 40-45 min. The sections were then rinsed with tap water at 40° C. during at least 45 min, rinsed rapidly with distilled water and allowed to dry. They were dehydrated in ethanol and coverslipped.
# Mossy fiber sprouting was evaluated according to criteria previously described in dorsal hippocampus (Cavazos et al., 1991, J Neurosci 11:2795-2803.), which are follows: 0—no granules between the tips and crest of the DG; 1—sparse granules in the supragranular region in a patchy distribution between the tips and crest of DG; 2—more numerous granules in a continuous distribution between the tips and crest of DG; 3—prominent granules in a continuous pattern between tips and crest, with occasional patches of confluent granules between tips and crest; 4—prominent granules that form a confluent dense laminar band between tips and crest and 5—confluent dense laminar band of granules that extends into the inner molecular layer.
# [4] = tested on: rats subjected to Li-pilo induced SE; experiment: Example 1: mortality induced by lithium-pilocarpine status epilepticus; type: in vivo, rat
# Procedure: The bilateral EEG cortical activity was recorded during the whole duration of SE and behavioral changes were noted.
# The effects of increasing doses of the Test Compound were studied on 3 groups of rats. The animals of the first group received 10 mg/kg of the test compound, i.p., 1 h after the onset of SE (pilo-TC10) while the animals of groups 2 and 3 received 30 and 60 mg/kg of the Test Compound (pilo-TC30 and pilo-TC60), respectively.
# The control group received saline instead of pilocarpine and the Test Compound (saline-saline). […] Pilo-DZP received a second injection of 1 mg/kg DZP on the day of SE at about 10 h after the first one. Thereafter, Pilo-DZP and saline-saline rats received twice daily an equivalent volume of saline.
# [5] = repeated doses q12h, 100-750 mg
smiles,measurement,setting,value
NC(=O)OC[C@@H](O)c1ccccc1Cl [TC],Tmax,"[1]; male, human, plasma, single oral dose 100-1500 mg, healthy men",1.3 to 2.7 h
same,half-life,"[1]; male, human, plasma, single oral dose 100-1500 mg, healthy men, read-out: Mean t1/2",11.5 to 13.9 h
same,Cmax and AUC0-∞ dose dependence,[1]; single dose over the range of 100-1500 mg,increased in proportion to dose
same,Mean CL/F,"[1]; single oral dose 100-1500 mg, healthy men",2.87 to 3.67 L/h
same,absorption following oral administration,"[1]; single oral dose, healthy men",rapidly absorbed
same,Mean CLR relative to mean oral clearance,[2]; healthy men,< 5 % of the mean oral clearance
same,Tmax at 1 wk,"[2]; male, human, plasma, oral, repeated doses q12h, 100-750 mg",1.3 to 1.8 h
same,half-life at 1 wk,"[2]; male, human, plasma, oral, repeated doses q12h, 100-750 mg, read-out: mean t1/2 at steady state",11.9 to 12.8 h
same,accumulation: Cmax and AUC0-12 on day 7 vs. day 1,"[2]; q12h administration, listed as Test Compound",about two-fold
same,Steady-state Cmax and AUC0-12 dose dependence,[2]; repeated doses 100-750 mg,increased in proportion to the dose
same,mean CL/F at steady state,[2]; [5],3.40 to 3.78 L/h
same,time for plasma concentrations to reach steady state,[2]; [5],3 to 4 days
same,linearity of PK,"[2]; single (100-1500 mg) and repeated (100-750 mg bid) doses, healthy adult men",linear
same,Timm score,[3]; subgroup with early SRS occurrence,1.8±0.6
same,Timm score,[3]; subgroup with late occurrence or absence of SRS,1.2±0.6
same,"Timm score in the upper blade of the dentate gyrus, mean",[3]; pilo-TC10 rats,1.5±0.6
same,"Timm score in the upper blade of the dentate gyrus, mean",[3]; pilo-TC30 rats,2.6±1.0
same,"Timm score in the upper blade of the dentate gyrus, mean",[3]; whole group of pilo-TC60 rats,1.5±0.7
same,mortality during the first 48 h after SE,"[4]; pilo-TC10, 10 mg/kg i.p.",26%
same,mortality during the first 48 h after SE,"[4]; pilo-TC30, 30 mg/kg i.p.",20%
same,mortality during the first 48 h after SE,"[4]; pilo-TC60, 60 mg/kg i.p.",4%

# From patent publication US20110152362A1, “METHODS OF TREATING EPILEPTOGENESIS AND EPILEPSY” (priority 2004, published 2011)
